In US4031231A, “Antibacterial composition comprising 3-fluoro-D-alanine or deutero analog in combination with auto-antagonist inhibitor” (priority 1976, dated 1977):
≈ marks a conversion by molar mass, not a printed value. Read-outs that look alike come from different tables or passages of the source. One block for each compound: values may come before it.

Assays:
[1] = Stability in aqueous solution; format: physicochemical
[2] = Release of cycloserine or methyl-cycloserine in vivo when administered clinically; details: for effectiveness in releasing cycloserine or methyl-cycloserine in vivo: administered clinically, substantially avoiding dimerization
[3] = tested on: Escherichia coli (Strain 2017); assay: Growth inhibition (complete repression of growth) of Escherichia coli culture; format: cell-based; details: for concentration of FDA-autoantagonist-inhibitor at which growth is completely repressed in combination with 3-fluoro-D-alanine / inhibitor-effective concentration as percentage of its own minimum effective antibacterial concentration: combined with 3-fluoro-D-alanine at 50 μg/ml
Description: When the 3-fluoro-D-alanine, at this concentration of 50 μg/ml, is combined with an FDA-autoantagonist-inhibitor, such as cycloserine at concentrations of only 0.39 μg/ml, terizidone at 0.8 μg/ml, D-4-(1'-methyl-3'-oxo-1'-butenyl)amino-3-isoxazolidinone or its sodium salt at 0.72 μg/ml, or D-cis-cyclothreonine at approximately 2 μg/ml, growth of the Escherichia coli is completely repressed.

[4] = tested on: Serratia species 3374; assay: Protection of mice infected with Serratia species 3374 (ED50); format: in vivo, Serratia species 3374; female C.D.1 mice; details: 3 LD50; subcutaneous at 0, 2, 4 hours; 50% protected for 7 days
Description: (§1) Female C.D.1 mice of average weight 21.0 g. are injected intraperitoneally with 0.5 ml. of an appropriate dilution of a 16-hour broth culture containing the indicated pathogen. (The severity of the infectious challenge is represented in each case as the multiple of the dilution of the broth culture which is lethal for only 50% of the untreated population, i.e. No. LD50.) Appropriate dosages of 3-fluoro-D-alanine(FDA) and D-cycloserine, individually, and combinations of these two components in a fixed ration of 1:1 are administered in 0.5 ml volume subcutaneously on the dorsal surface, promptly at the time of the injection, and at 2 hour and 4 hour intervals thereafter. The results of these tests, which are expressed as the ED50 dose, which is the statistically interpolated dose required to protect 50% of the infected population for a period of 7 days following challenge and treatment, are as follows: […]

[5] = tested on: Staphylococcus aureus 2949; assay: Protection of mice infected with Staphylococcus aureus 2949 (ED50); format: in vivo, Staphylococcus aureus 2949; female C.D.1 mice; details: 30 LD50; subcutaneous at 0, 2, 4 hours; 50% protected for 7 days
Description: as §1

[6] = tested on: Escherichia coli 2017; assay: Survival of mice infected with Escherichia coli 2017; format: in vivo, Escherichia coli 2017; female C.D.1 mice; details: for number of survivors in each group of five infected mice: subcutaneous, 3 LD50
Description: Groups of five female C.D.1 mice of average weight 21.0 g are injected intraperitoneally with 0.5 ml of a diluted broth culture of Escherichia coli 2017 representing 3 LD50 of bacterial pathogens. The indicated dosages of 3-fluoro-D-alanine (FDA) and D-cycloserine are then promptly administered in a 0.5 ml volume by the subcutaneous route on the dorsal surface.
Across the top row of the tabulation are listed the number of mice surviving (in each group of five infected mice) for the indicated doses (mg) of 3-fluoro-D-alanine alone; in the first vertical column are listed the number surviving for the indicated doses (mg) of cycloserine alone; and in the second vertical column are listed the number of mice surviving for combination doses of 5.0 mg of 3-fluoro-D-alanine and the indicated amount (mg) of cycloserine.

[7] = tested on: Escherichia coli (Strain 2017); assay: Growth inhibition (complete repression of growth) of Escherichia coli culture; format: cell-based; details: for MIC: Escherichia coli, read-out: minimum concentration for complete inhibition (repression) of growth
[8] = individual component alone, E. coli Strain 2017

stability in aqueous solution [1]: remarkably stable in aqueous solution | effectiveness in releasing cycloserine or methyl-cycloserine in vivo [2]: extremely effective | effectiveness in releasing cycloserine in the blood stream and in the bladder ([2]; blood stream, bladder): of particular effectiveness
Structure (SMILES): CC(=O)C=C(C)N[C@@H]1CONC1=O [D-4-(1'-methyl-3'-oxo-1'-butenyl)amino-3-isoxazolidinone]
concentration of FDA-autoantagonist-inhibitor at which growth is completely repressed in combination with 3-fluoro-D-alanine [3]: 0.72 µg/mL

Structure (SMILES): N[C@H](CF)C(=O)O [FDA, 3-fluoro-D-alanine]
ED50, individual components [4]: 1.7 mg/dose | ED50, individual components [5]: 0.801 mg/dose | survival ([6]; 1.25 mg dose of 3-fluoro-D-alanine alone): 80% | survival ([6]; 5.0 mg dose of 3-fluoro-D-alanine alone (autoantagonism)): 20% | number of survivors in each group of five infected mice ([6]; FDA alone 0.078 mg): 0 mice | number of survivors in each group of five infected mice ([6]; FDA alone 0.312 mg): 3 mice | number of survivors in each group of five infected mice ([6]; FDA alone 1.25 mg): 4 mice | number of survivors in each group of five infected mice ([6]; FDA alone 5.0 mg): 1 mice | growth of the organism at higher concentration (autoantagonist action) ([7]; 3-fluoro-D-alanine alone at 50 μg/ml): extensive growth | MIC [7, 8]: 3.12 µg/mL (≈ 29.1 µM) | MIC ([3]; Escherichia coli, read-out: concentration at which growth is completely repressed): 3.2 µg/mL (≈ 29.9 µM)

Structure (SMILES): N[C@@H]1CON=C1O [cycloserine, D-4-amino-3-isoxazolidinone, reference compound]
ED50, individual components [4]: 2.5 mg/dose | ED50, individual components [5]: 0.400 mg/dose | suppression of the autoantagonism shown by 3-fluoro-D-alanine ([6]; 0.156 mg of cycloserine with 5.0 mg of 3-fluoro-D-alanine): completely suppresses the autoantagonism | number of survivors in each group of five infected mice ([6]; D-cycloserine alone 0.078 mg): 0 mice | number of survivors in each group of five infected mice ([6]; D-cycloserine alone 0.312 mg): 0 mice | number of survivors in each group of five infected mice ([6]; D-cycloserine alone 1.25 mg): 3 mice | number of survivors in each group of five infected mice ([6]; D-cycloserine alone 5.0 mg): 5 mice | protection ([6]; cycloserine alone, 0.156 mg): zero protection | MIC [7, 8]: 25 µg/mL (≈ 245 µM) | minimum concentration for complete inhibition (repression) of growth [7, 8]: 25 µg/mL | concentration of FDA-autoantagonist-inhibitor at which growth is completely repressed in combination with 3-fluoro-D-alanine [3]: 0.39 µg/mL | inhibitor-effective concentration as percentage of its own minimum effective antibacterial concentration [3]: less than 2%

stability in aqueous solution [1]: remarkably stable in aqueous solution | effectiveness in releasing cycloserine or methyl-cycloserine in vivo [2]: extremely effective
Structure (SMILES): CC(=O)C(C)=C(C)N[C@@H]1CONC1=O [D-4-(1',2'-dimethyl-3'-oxo-1'-butenyl)amino-3-isoxazolidinone]

Structure (SMILES): C[C@@H]1ONC(=O)[C@@H]1N [D-cis-cyclothreonine]
concentration of FDA-autoantagonist-inhibitor at which growth is completely repressed in combination with 3-fluoro-D-alanine [3]: approximately 2 μg/ml | inhibitor-effective concentration as percentage of its own minimum effective antibacterial concentration [3]: less than 2%

Structure (SMILES): O=C1NOCC1/N=C/c1ccc(/C=N/C2CONC2=O)cc1 (stereo not drawn) [terizidone]
concentration of FDA-autoantagonist-inhibitor at which growth is completely repressed in combination with 3-fluoro-D-alanine [3]: 0.8 µg/mL | inhibitor-effective concentration as percentage of its own minimum effective antibacterial concentration [3]: less than 2%
